According to patent publication US6946427B2, “Preservative blends containing iodine containing compounds” (Lonza Inc., priority 2001, dated 2005):
Read-outs that look alike come from different tables or passages of the source.

System: S. aureus, P. aeruginosa, and E. coli
Experiment: Preservative challenge test in anionic protein shampoo inoculated with mixed bacteria; plate counts and Kull synergism value
Assay type: cell-based

SMILES | S. aureus, P. aeruginosa, and E. coli (cfu/g) Day 0 (anionic protein shampoo, single preservative, printed ">0.5%" by weight, Day 0) | S. aureus, P. aeruginosa, and E. coli (cfu/g) Day 14 (anionic protein shampoo, single preservative, printed ">0.5%" by weight, Day 14) | Qc, concentration of sodium dehydroacetate monohydrate alone required to yield 100% retardation of the bacteria (percent by weight, plate count <10 cfu/g after 14 days) [%] | Qa, concentration of sodium salicylate alone required to yield 100% retardation of the bacteria [%] | S. aureus, P. aeruginosa, and E. coli (cfu/g) Day 0 | S. aureus, P. aeruginosa, and E. coli (cfu/g) Day 14
CC(=O)c1c([O-])cc(C)oc1=O.O.[Na+] [Sodium Dehydroacetate Monohydrate, sodium dehydroacetate monohydrate] | 3.0 × 10^6 cfu/g | 4.0 × 10^3 cfu/g | >0.50 |  |  | 
O=C([O-])c1ccccc1O.[Na+] [Sodium Salicylate, sodium salicylate] |  |  |  | >1.00 | 3.0 × 10^6 cfu/g | 5.0 × 10^2 cfu/g
